Test results reported in ChEMBL document CHEMBL3507680, “University of Dundee, Gates Library screen for HepG2 cell viability”.

Test: Human HepG2 cell viability assay in 384 well format
Format: toxicity, cell-based
Parameters: dose 125 nL, time 70.5 hour; concentration not given beside the values
Conditions: HepG2 cells, read-out: Inhibition

Row | Compound | cytotoxicity at 70.5 h [%]
1 | Cc1ccc(N2CCN(C(=O)CCc3ccc(O)cc3)CC2=O)cc1 | -10.1
2 | O=S1(=O)CCC(c2nnc(-c3cnc4onc(C5CCCC5)c4c3)o2)C1 (centres undefined) | 20.9
3 | Cc1nn(CC(=O)Nc2ccc(F)cc2)c(N)c1C#N | -0.498
4 | CC(=O)N1N=C(c2ccccc2)OC1C(=O)N(C)Cc1ccccc1 (centres undefined) | -4.44
5 | Cc1cc(NC(=O)NCC2(O)CCCC2)ccn1 | -14
6 | COCCCN1CCC(N(Cc2noc(C)n2)C(C)=O)C1 (centres undefined) | -5.67
7 | Cc1ccc(N2CCC3(CCN(C(=O)c4ccsc4)CC3)C2)nn1 | 4.86
8 | O=C(C1CCCO1)N1CCC2(CC1)COCCN(Cc1ccncc1)C2 (centres undefined) | -9.52
9 | FC1(F)CCN(Cc2cccnc2)CC12CCN(c1cnccn1)C2 (centres undefined) | -12.8
10 | CN(C)c1nc2c(c(=O)[nH]1)CCN(C(=O)c1ccc(=O)[nH]c1)C2 | -3.2
11 | CCNC(=O)NC[C@H]1C[C@@H]2CCN1C[C@@H]2c1cc(-c2cccs2)nn1C | -3.63
12 | CC(C)CN1C(=O)c2ccc(C(=O)NCCc3c[nH]cn3)cc2C1=O | -0.52
13 | CCN(C(=O)c1cc(C)oc1C)C1CC1 | -4.05
14 | CCn1cc(S(=O)(=O)NC(CO)Cc2c[nH]c3ccccc23)cn1 (centres undefined) | -7.79
15 | COc1cc2cc(C(=O)NC(C)C(=O)O)n(C)c2c(OC)c1OC (centres undefined) | -7.07
16 | c1cc(CN2CCCC3(COCCN(Cc4c[nH]nn4)C3)C2)cs1 (centres undefined) | -2.64
17 | CCCc1noc(C2CC(=O)N(C(C)(C)C)C2)n1 (centres undefined) | -16
18 | CCc1cccc(NC(=O)NC2CCc3nc(C)nn3C2)c1 (centres undefined) | 13.8
19 | O=C(c1cnccn1)N1CCN2C[C@H](OCc3ccccc3)C[C@H]2C1 | -1.37
20 | CN(CCCNC(=O)NCc1ccncc1)CC(F)(F)F | -8.47
21 | COc1ccccc1CC(=O)NS(=O)(=O)c1cncc(Br)c1 | 4.46
22 | Cc1c(NC(=O)NC2CCCC2)cccc1C(=O)N1CCSCC1 | -3.56
23 | CC(C)COCC1CN(Cc2ccco2)Cc2ncn(C)c21 (centres undefined) | -6.93

Row | Compound | cytotoxicity at 70.5 h [%]
24 | N[C@@H]1c2ccccc2C2(CCN(C(=O)c3ccc(=O)[nH]c3)CC2)[C@H]1O | -6.66
25 | Cc1ccc(N(CCC#N)C(=O)CN2CCCC2c2ccsc2)cc1 (centres undefined) | 0.989
26 | CC1CCN(CCNC(=O)c2scnc2Cl)CC1 | 18.5
27 | Cc1cc(C(=O)N2C[C@H](CO)C[C@H](CN3CCOCC3)C2)nc(C)n1 | -7.67
28 | Cn1cccc1C(=O)N1CCC2(CC1)CN(c1ccccc1)C(=O)CO2 | -14.1
29 | Cc1cc(OCCC(=O)Nc2cccc(F)c2)nnc1C | 8.29
30 | Cc1cc(C2CCCN2S(=O)(=O)c2cnn(C)c2)on1 (centres undefined) | -6.62
31 | COCc1nc(C(=O)N2CCCC(n3cccn3)C2)cs1 (centres undefined) | -13.4
32 | Cc1sc(-c2ccco2)nc1C(=O)N(CC1CCOC1)C1CC1 (centres undefined) | -1.94
33 | CC(NC(=O)NCCCN(C)S(C)(=O)=O)c1ccc(F)cc1 (centres undefined) | 16.8
34 | O=C1CCC2(CCCN(C(=O)c3ccc[nH]3)C2)CN1Cc1cccnc1 (centres undefined) | -3.97
35 | CC(O)CCn1ccc2[nH]c(=O)c(C#N)cc2c1=O (centres undefined) | 4.38
36 | NC(=O)NC(=O)CCSCc1coc(-c2cccc(Cl)c2)n1 | -17.3
37 | COc1cc(CNC(C)Cn2cccn2)cc(OC)c1 (centres undefined) | -9.25
38 | Cc1nnc(NCc2ccccc2Cl)c(C#N)c1C | -9.79
39 | COc1ccccc1CN(C)C(=O)CN1CC(n2nc(C)cc2C)C1 | -2.12
40 | COc1ccnc(N2CCN(CC(=O)N3CCC(C)CC3)CC2)n1 | -13.2
41 | CC(C)Cc1noc(CN(C)C2CCS(=O)(=O)C2)n1 (centres undefined) | -3.8
42 | Cc1cccc(-c2ncc(CNC(C)Cc3ccncc3)cn2)c1 (centres undefined) | -3.63
43 | COc1ccnc(N2CCN(CC(=O)N3CCOCC3)CC2)n1 | 2.32
44 | Cc1ncc(C)c(N2Cc3cnn(Cc4ccc(F)cc4)c3C2)n1 | 13
45 | Cn1cc(CC2CCN(C(=O)NCc3cccc(C#N)c3)C2)cn1 (centres undefined) | -5
46 | COc1ccc(Cl)cc1S(=O)(=O)N(C)CC(=O)Nc1ccccc1 | -9.85

Row | Compound | cytotoxicity at 70.5 h [%]
47 | CCN(Cc1ccco1)C(C)c1nc(C(C)C)no1 (centres undefined) | -3.54
48 | Cc1cc(C2CCCN2Cc2cc(=O)n(C)c(=O)n2C)no1 (centres undefined) | 18.5
49 | CCS(=O)(=O)NCc1nc(C)cc(N2CCCCC2)n1 | -7.45
50 | c1cc(CNCc2ccnc(N3CCCC3)c2)c2c(c1)OCCCO2 | -10
51 | Cc1ccc(OCC(=O)Nc2cc(C(=O)O)cc(S(C)(=O)=O)c2)cc1C | 0.676
52 | O=S(=O)(NCc1ccc(S(=O)(=O)N2CCCC2)s1)c1cc(Cl)cc(Cl)c1 | -21.3
53 | CC(C)c1cnc(CN2CCCC(c3ccn[nH]3)C2)o1 (centres undefined) | -7.68
54 | FC(F)(F)Oc1ccc(-c2c[nH]c([C@@H]3COCCN3)n2)cc1 | -3.01
55 | CCN(CC)C(=O)CSc1nc2c(cnn2CCO)c(=O)[nH]1 | 17.2
56 | Cc1cc(F)ccc1-n1cc(O)c(C(=O)NCC2(O)CCC2)n1 | 28.4
57 | c1csc(CN2CCOCC3(CCN(C4CCOCC4)C3)C2)n1 (centres undefined) | 0.591
58 | CN(Cc1ccco1)C(=O)CN1CCc2ccccc2C1 | -7.16
59 | CNCC(=O)N1CCCC(c2cccc(Nc3nc(C)cc(C)n3)n2)C1 (centres undefined) | 58.7
60 | CNc1nc(C)c(-c2nc(-c3c(C)ncc4c3CCNC4)no2)s1 | -16.8
61 | Cn1nc(CN2CCCCC2)c2c1CN(C(=O)Nc1cccc(F)c1)C2 | 11.6
62 | c1ccc(CO[C@H]2CO[C@@]3(CCCN(Cc4cccnc4)C3)C2)nc1 | -24.8
63 | CSc1ccc(NCC(=O)NCC2CC2)cc1F | -3.73
64 | O=C(CC1=CSC2=NCCCN12)N1CCCCC1c1cccc(F)c1 (centres undefined) | 20.1
65 | Cc1ccc(C(CNC(=O)c2cc(CC(C)C)nn2C)N(C)C)cc1 (centres undefined) | -3.96
66 | O=C(c1cnccn1)N1CC2(CCN(Cc3ccsc3)C2)C1 | -4.05
67 | CN(C)C[C@H]1C[C@@H]2CN(Cc3ccoc3)C[C@@H]2O1 | -12.5
68 | CN(C)CC(=O)N1CC(c2nn(C)c3nccnc23)C1 | -6.77
69 | CCc1ccc(C(=O)N2CCC(Nc3ccc(C)nn3)CC2)o1 | -4.81

Row | Compound | cytotoxicity at 70.5 h [%]
70 | COc1cc(C)c(S(=O)(=O)CC(=O)N(C)C(C)C)cc1OC | -5.84
71 | O=c1[nH]c(-c2ccncc2)nc2c1CCN(S(=O)(=O)N1CCCC1)C2 | -13.7
72 | c1cncc(-c2ccc3c(c2)CCC32CCNCC2)c1 | 17.8
73 | NC(=O)c1ccc(OCC(=O)N2CCCC(n3cccn3)C2)cc1 (centres undefined) | -12
74 | CN(Cc1nccn1C)S(=O)(=O)Cc1cccc(C#N)c1 | -12.6
75 | CC1(C)CN(C(=O)Nc2cc(C(F)(F)F)c[nH]c2=O)CCO1 | -6.62
76 | Cc1ccccc1C(C)NC(=O)CN1CCN(Cc2ccc(Cl)s2)CC1 (centres undefined) | 17
77 | CNC(=O)c1nnn(-c2ccccc2F)c1-c1ccccn1 | 0.41
78 | Cc1ccc(OCc2nnc(SCC3CCCN(C)C3)o2)cc1 (centres undefined) | -8.56
79 | O=C1OC2(CCN(C(=O)C3NCCc4[nH]cnc43)CC2)c2ccccc21 (centres undefined) | -9.73
80 | CN(Cc1cccnc1)C1CC2(CCN(C(=O)c3cscn3)CC2)C1 | 8.2
81 | CCCc1cc(CN(C)C2CSCCSC2)n[nH]1 | -6.5
82 | Cn1ccc(C(=O)N2CCCC(c3cc(O)n(C)n3)C2)n1 (centres undefined) | 28
83 | Cc1nc(C)n(CC2CCCN2CCOc2ccc(F)cc2)n1 (centres undefined) | -9.83
84 | CC(NC(=O)N(C)CCCOc1ccc(F)cc1)c1nncn1C (centres undefined) | -1.45
85 | F[C@@H]1CN(C2CCC2)C[C@@H]1OCc1nc2ncccc2[nH]1 | 15.4
86 | O=C(Cc1ccsc1)N1CCn2cc(CN3CCCC3)nc2C1 | -5.43
87 | CSc1nccc(N2CCN(C)C3(CCC(=O)N(CC4CC4)CC3)C2)n1 (centres undefined) | 1.61
88 | CCOc1ccccc1N(C)Cc1nccn1C | 4.63
89 | N#Cc1c(F)cccc1Nc1cnn(CC(O)CN2CCOCC2)c1 (centres undefined) | -102
90 | Cc1cc(CS(=O)(=O)NCC2CCCCC2)on1 | 0.508
91 | COCc1noc(CN2C[C@H](NS(C)(=O)=O)[C@@H](C3CC3)C2)n1 | -11
92 | N#Cc1cccc(N2CCCC3(C2)CN(c2ncccn2)CCO3)n1 (centres undefined) | -6.81

Row | Compound | cytotoxicity at 70.5 h [%]
93 | Cn1ncc2c1CCCN(C(=O)C1CCC1)C2 | -2.82
94 | COCCC1(CO)CCCN(Cc2ccncc2)C1 (centres undefined) | -3.98
95 | CCn1ncc2c1CCCC2NCc1ccc(OC)cc1OC (centres undefined) | -4.5
96 | N#CCCN(C(=O)CN1CCCC1C1CCCCC1)c1ccccc1 (centres undefined) | 11.9
97 | Cc1ccc(CN2CCC3(CC2)CCN(C(=O)c2cccnc2)C3)o1 | -5.87
98 | N#Cc1nccnc1NC1CCN(c2ccccc2OC(F)F)C1 (centres undefined) | -5.2
99 | Cc1cc(NC(C)c2nncn2C2CCCC2)n2nc(C)c(C)c2n1 (centres undefined) | -12.4
100 | O=C(NCCOc1ccccc1)NCC(O)c1cccs1 (centres undefined) | -11.8
101 | Cc1noc(C)c1-c1ccc(C2CCCN2C(=O)c2ccncn2)nc1 (centres undefined) | 27.1
102 | Cc1cc(C2CCCN(C(=O)CCc3cscn3)C2)n[nH]1 (centres undefined) | -19.6
103 | CNC(=O)C1CCN(CC(=O)Nc2cc(C(C)C)no2)CC1 | -1.42
104 | CNC(=O)COc1ccccc1CNCc1c(C)noc1C | -3.67
105 | COc1ccc(COCC(O)CSc2ccc(NC(C)=O)cc2)cc1 (centres undefined) | -10.5
106 | Fc1ccc(C(CNc2ccncn2)N2CCCCC2)cc1 (centres undefined) | -13.6
107 | CCN1CCCC(NC(=O)c2ccc(C)[nH]c2=O)C1 (centres undefined) | -8.86
108 | O=C(Nc1cc(Cl)ccc1Cl)NC1CCN(C2CCOC2)CC1 (centres undefined) | 25.3
109 | CCCC(=O)NCCc1nc2cc(-c3ccc(OC)cc3)ncn2n1 | -8.47
110 | CCN(CC)C(=O)c1nnsc1-c1ccccc1 | -10.3
111 | Cc1cn[nH]c1C1CCCCN1C(=O)CCc1ccc(F)cc1 (centres undefined) | -6.22
112 | Cc1ccc(-n2nnc(CC(=O)N3CCN(C4CC4)CC3)c2C)cc1 | -8.64
113 | CCC(CNC(=O)c1nc(=O)[nH][nH]1)Oc1ccccc1C(F)(F)F (centres undefined) | 1.22
114 | O=c1[nH]c(N2CCCCC2)nc2c1CCN(Cc1cccnc1)C2 | -6.55
